{"source": "patent US6462040B1", "about": "“Cis-substituted aminocyclopropane derivative” (Daiicho Pharmaceutical Co., Ltd., priority 1996, dated 2002)", "assay_in_all_cases": "Antimicrobial activity, MIC (standard method of the Japan Chemotherapeutic Society)", "type_in_all_cases": "cell-based", "key": {"E. coli, NIHJ": {"system": "E. coli, NIHJ", "from_the_text": "(§1) The present invention will further be illustrated in greater detail by way of Examples and Reference Examples, but the present invention should not be construed as being limited thereto. The antimicrobial activity of the compounds prepared was examined in accordance with the standard method specified by the Japan Chemotherapeutic Society, and the results obtained were expressed in terms of minimum inhibitory concentration (MIC; μg/ml)."}, "Pr. mirabilis, IFO-3849": {"system": "Pr. mirabilis, IFO-3849", "from_the_text": "as §1"}, "Pr. vulgaris, 08601": {"system": "Pr. vulgaris, 08601", "from_the_text": "as §1"}, "Ps. aeruginosa, 32104": {"system": "Ps. aeruginosa, 32104", "from_the_text": "as §1"}, "Ps. aeruginosa, 32121": {"system": "Ps. aeruginosa, 32121", "from_the_text": "as §1"}, "[1]": {"system": "Ps. maltophilia, IID-1275", "from_the_text": "as §1"}, "S. aureaus, 209P": {"system": "S. aureaus, 209P", "from_the_text": "as §1"}, "S. aureus, 870307": {"system": "S. aureus, 870307", "from_the_text": "as §1"}, "S. epidermidis, 56500": {"system": "S. epidermidis, 56500", "from_the_text": "as §1"}, "S. flexneli, 2A 5503": {"system": "S. flexneli, 2A 5503", "from_the_text": "as §1"}, "Ser. marcescens, 10100": {"system": "Ser. marcescens, 10100", "from_the_text": "as §1"}, "[2]": {"system": "Str. faecalis, ATCC-19433", "from_the_text": "as §1"}, "Str. pyogenes, G-36": {"system": "Str. pyogenes, G-36", "from_the_text": "as §1"}}, "data": [{"compound": "Cc1c(N2CCC([C@@H]3C[C@@H]3N)C2)c(F)c(N)c2c(=O)c(C(=O)O)cn([C@@H]3C[C@@H]3F)c12", "note": "(single isomer, unassigned; isomer b) [Example 3]", "values": [{"measurement": "MIC", "setting": "E. coli, NIHJ", "result": "≦0.003 μg/ml"}, {"measurement": "MIC", "setting": "Pr. mirabilis, IFO-3849", "result": 0.05, "unit": "µg/mL"}, {"measurement": "MIC", "setting": "Pr. vulgaris, 08601", "result": 0.05, "unit": "µg/mL"}, {"measurement": "MIC", "setting": "Ps. aeruginosa, 32104", "result": 0.20, "unit": "µg/mL"}, {"measurement": "MIC", "setting": "Ps. aeruginosa, 32121", "result": 0.10, "unit": "µg/mL"}, {"measurement": "MIC", "setting": "[1]", "result": 0.05, "unit": "µg/mL"}, {"measurement": "MIC", "setting": "S. aureaus, 209P", "result": "≦0.003 μg/ml"}, {"measurement": "MIC", "setting": "S. aureus, 870307", "result": 0.025, "unit": "µg/mL"}, {"measurement": "MIC", "setting": "S. epidermidis, 56500", "result": 0.006, "unit": "µg/mL"}, {"measurement": "MIC", "setting": "S. flexneli, 2A 5503", "result": "≦0.003 μg/ml"}, {"measurement": "MIC", "setting": "Ser. marcescens, 10100", "result": 0.10, "unit": "µg/mL"}, {"measurement": "MIC", "setting": "[2]", "result": 0.025, "unit": "µg/mL"}, {"measurement": "MIC", "setting": "Str. pyogenes, G-36", "result": 0.006, "unit": "µg/mL"}]}]}
